Molecules are shown by their SMILES.

The nature of test [1]: DPPH radical-scavenging effect assay. To be noted: 30 min incubation at room temperature, absorbance at 517 nm. Here is the method:
DPPH (1,1-diphenyl-2-picrylhydrazyl) radical-scavenging effect was evaluated following the procedure described in a previous study (Feki et al. [2005]). Various concentrations of extracts and fractions (5 μL) dissolved in methanol were added to 5 mL of a 0.004% methanol solution of DPPH. After a 30 min incubation period at room temperature, the absorbance was read against a blank at 517 nm. Inhibition of free radical, DPPH, in percent (I%) was calculated as follows: I% = (Ablank-Asample/Ablank)×100 where Ablank is the absorbance of the control reaction (containing all reagents except the studied sample) and Asample is the absorbance of the studied sample. Extract concentration providing 50% inhibition (IC50) was calculated from the graph plotted of inhibition percentage against extract concentration. The synthetic antioxidant reagents BHT and vitamin E were used as positive control and all tests were carried out in triplicate.
In general terms: DPPH is a stable violet radical that fades when it is reduced.

A further test has as its system α-glucosidase. Also noted: method as in Kim et al. ([2000]). The following applies: ref Kim et al. ([2000]); cited from earlier work.
The target in test [2] is T1, porcine pancreatic α-amylase (PPA) (Sus scrofa, UniProt P00690).
T1 construct: purchased Sigma-Aldrich (St. Louis, MO)
T1 sequence (P00690 16-511): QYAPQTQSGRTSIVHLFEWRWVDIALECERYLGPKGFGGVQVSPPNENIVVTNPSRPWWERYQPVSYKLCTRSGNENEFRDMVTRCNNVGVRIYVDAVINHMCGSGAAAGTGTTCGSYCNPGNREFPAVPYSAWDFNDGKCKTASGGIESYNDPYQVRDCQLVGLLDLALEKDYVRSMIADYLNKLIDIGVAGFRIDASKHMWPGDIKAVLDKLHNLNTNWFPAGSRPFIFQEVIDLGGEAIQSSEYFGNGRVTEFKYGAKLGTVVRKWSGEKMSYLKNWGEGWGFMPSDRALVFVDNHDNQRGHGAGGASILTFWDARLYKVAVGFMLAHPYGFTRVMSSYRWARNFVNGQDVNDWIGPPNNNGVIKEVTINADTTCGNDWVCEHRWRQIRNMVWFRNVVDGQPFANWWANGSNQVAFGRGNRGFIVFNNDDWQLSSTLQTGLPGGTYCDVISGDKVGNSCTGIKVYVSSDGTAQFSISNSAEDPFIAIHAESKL
As to the kind of experiment: α-Amylase inhibition assay by CNPG3 method. Format: biochemical.
Method: The studied sample was dissolved in DMSO to give concentrations of 50, 100, and 200 mg/mL. The enzyme solution was prepared by mixing α-amylase in 100 mL of 40 mM phosphate buffer, pH 6.9. The assays were measured by mixing 80 mL of the studied sample, 20 mL of α-amylase solution, and 1 mL of 2-chloro-4-nitrophenol-α-D-maltotrioside (CNPG3). The mixture was incubated at 37 °C for 5 min. The absorbance was measured at 405 nm spectrophotometrically (Jenway 6405 UV/Visible, Staffordshire, UK). […] Percentage inhibition was calculated by the following expression and all tests were carried out in triplicate: PI = [(AbsorbanceControl-AbsorbanceTest)/AbsorbanceControl] × 100

Turning to `Cc1cc(C(C)(C)C)c(O)c(C(C)(C)C)c1` [BHT, butylate hydroxytoluene, reference compound], the “DPPH IC50” value in test [1] is 18.1 ± 0.2 µg/mL.

By IC50 is commonly meant the midpoint of a concentration-inhibition curve. Read a high IC50 as a need for much substance. Turning to `O=c1cc(-c2ccc(O)c(-c3c(O)cc(O)c4c(=O)cc(-c5ccc(O)cc5)oc34)c2)oc2cc(O)cc(O)c12` [Amentoflavone], the “inhibitory activity against α-glucosidase” value in the test on α-glucosidase is on record as “relatively important inhibitory activity”. The “DPPH IC50” value in test [1] amounted to 14.1 ± 0.4 µg/mL. For the same compound, in test [2], the IC50 is 37.9 µM.

Source of the values: PMC7011873, “LC-MS–MS and GC-MS analyses of biologically active extracts and fractions from Tunisian Juniperus phoenice leaves” (Pharmaceutical Biology, 2016).
